Experimental data published in the NIST ThermoML archive (doi:10.1021/acs.jced.8b00855).
± gives the expanded uncertainty stated by the source.

Key:
[1] = Liquid, Ebulliometric method (Recirculating still)
[2] = Boiling temperature at pressure P; details: Liquid, Ebulliometric method (Recirculating still)

vapor or sublimation pressure ([1]; 367.9 K) [kPa] | vapor or sublimation pressure ([1]; 370.6 K) [kPa] | vapor or sublimation pressure ([1]; 373.6 K) [kPa] | vapor or sublimation pressure ([1]; 375.1 K) [kPa] | vapor or sublimation pressure ([1]; 379.3 K) [kPa] | Boiling temperature at pressure P ([2]; 72.04 kPa) [°C] | Boiling temperature at pressure P ([2]; 78.83 kPa) [°C] | Boiling temperature at pressure P ([2]; 85.94 kPa) [°C] | Boiling temperature at pressure P ([2]; 89.82 kPa) [°C] | Boiling temperature at pressure P ([2]; 101.39 kPa) [°C] | vapor or sublimation pressure ([1]; 403.4 K) [kPa] | vapor or sublimation pressure ([1]; 405.8 K) [kPa] | vapor or sublimation pressure ([1]; 408.4 K) [kPa] | vapor or sublimation pressure ([1]; 409.8 K) [kPa] | vapor or sublimation pressure ([1]; 413.4 K) [kPa] | Boiling temperature at pressure P ([2]; 71.47 kPa) [°C] | Boiling temperature at pressure P ([2]; 78.36 kPa) [°C] | Boiling temperature at pressure P ([2]; 85.5 kPa) [°C] | Boiling temperature at pressure P ([2]; 89.49 kPa) [°C] | Boiling temperature at pressure P ([2]; 102 kPa) [°C] | SMILES
71.5 ± 2.4 | 77.95 ± 2.5 | 85.5 ± 2.6 | 89.69 ± 2.9 | 101.79 ± 2.9 | 95.1 ± 1 | 98.1 ± 1 | 100.2 ± 1 | 102.2 ± 1 | 106.1 ± 1 | – | – | – | – | – | – | – | – | – | – | COC1CCCC1 [methoxycyclopentane]
– | – | – | – | – | – | – | – | – | – | 71.5 ± 2.7 | 77.95 ± 2.8 | 85.5 ± 2.9 | 89.69 ± 3.3 | 101.79 ± 3.4 | 130.2 ± 1 | 133.1 ± 1 | 135.5 ± 1 | 136.2 ± 1 | 140.5 ± 1 | OC1CCCC1 [cyclopentanol]
